These results are taken from patent US20150157575A1, “Pharmaceutical Formulations Comprising Vilazodone” (Forest Laboratories Holdings Ltd., priority 2013, published 2015).

Series [1] in a line: clinical. On the set-up: species or system human. The note with it: both sexes, human, in vivo, Mean trough plasma concentration. The procedure: An open-label, multiple-dose, single-sequence study to evaluate the effect of steady-state carbamazepine XR, 400 mg once daily, a CYP3A4 substrate and inducer, on the pharmacokinetics of steady-state vilazodone 40 mg tablets once daily, with hardness of more than 10 kp and less than 14 kp, preferably about 12 kp as shown in Table 3 (No Tablet Breakage). Vilazodone was co-administered with carbamazepine XR (extended release formulation). Carbamazepine is an antiepileptic drug approved for the treatment of psychomotor and grand mal seizures is metabolized by CYP3A4, and is a CYP3A4 inducer.
All subjects were healthy, nonsmoking male or female volunteers who were 18-45 (Study 2) years of age. Inclusion and exclusion criteria were typical of the criteria used in pharmacokinetic studies in healthy volunteers as known in the art. Inclusion criteria used included agreement to use an effective measure of contraception, body mass index (BMI)>18 and ≦30 kg/m^2 (BMI=18 allowed), normal or clinically non-significant results on physical examination, medical history, serum chemistry, hematology, and urinalysis; negative hepatitis B antigen and C antibody tests, and negative HIV test at screening. Exclusion criteria included clinically significant electrocardiogram results or QT prolongation, clinically significant disease state, history of alcohol abuse, ingestion of food, drink, or drug that may interfere with CYP enzyme activity (e.g., cruciferous vegetables, caffeine, alcohol), known sensitivity to study drug or other drugs from the same class, and use of prohibited concomitant prescription or over-the counter medications.
All volunteers received 4 treatments (A, B, C, and D) in the same, fixed sequence: Treatment A consisted of vilazodone alone on Days 1-9 and was followed by a 14-day washout, Treatment B was carbamazepine XR alone for 19 days (Days 24-42), Treatment C was vilazodone plus carbamazepine XR for 9 days (Days 43-51), and Treatment D was carbamazepine alone for 3 days (Days 52-54). Once-daily doses of study drug were administered in the morning after breakfast; twice-daily doses were administered in the morning after breakfast and 12 hours later in the evening after dinner Study drug was administered within 30 minutes after the end of the corresponding meal.
Blood samples to determine plasma concentrations of vilazodone, M17 (the metabolite of vilazodone), carbamazepine, and carbamazepine-10,11-epoxide (one of the pharmacologically active metabolites of carbamazepine) were collected into tubes pretreated with K2EDTA. For vilazodone and M17 analyses, blood samples (approximately 6 mL) were collected at pre-dose on Days 1, 7, 8, 49, and 50. […] For the analyses of carbamazepine and carbamazepine-10,11-epoxide, blood samples were collected at pre-dose on Days 24, 40, 41, 49 and 50.
Blood samples were centrifuged at no less than 2500 g for 10 minutes at 4° C. within 30 minutes of the sample draw. Plasma was harvested and transferred to polypropylene tubes and flash frozen in a dry ice bath with isopropyl alcohol or methanol. Samples for vilazodone analyses were stored at approximately −70° C. and analyzed. Samples for carbamazepine analyses were stored at −20° C. and analyzed.
Plasma samples were analyzed for vilazodone, M17, carbamazepine and/or carbamazepine-10,11-epoxide concentrations using liquid chromatography coupled with tandem mass spectrometry (LC/MS/MS). For vilazodone and M17, analytes of interest were detected by electrospray ionization mass spectrometry in the negative ion multiple reaction monitoring mode. The assay was linear in the concentration range of 0.5 to 250 ng/mL for vilazodone and 0.25 to 125 ng/mL for M17.
Based on 50 ìL of human plasma with K2EDTA as the anticoagulant, the lower limit of quantification (LLOQ) was 0.5 ng/mL for vilazodone and 0.25 ng/mL for M17. […]

Series [2] addresses dopamine reuptake site (Homo sapiens, UniProt Q01959). The note with it: cited from earlier work.

SMILES strings stand for the structures.

dopamine reuptake site, sequence (Q01959 whole entry): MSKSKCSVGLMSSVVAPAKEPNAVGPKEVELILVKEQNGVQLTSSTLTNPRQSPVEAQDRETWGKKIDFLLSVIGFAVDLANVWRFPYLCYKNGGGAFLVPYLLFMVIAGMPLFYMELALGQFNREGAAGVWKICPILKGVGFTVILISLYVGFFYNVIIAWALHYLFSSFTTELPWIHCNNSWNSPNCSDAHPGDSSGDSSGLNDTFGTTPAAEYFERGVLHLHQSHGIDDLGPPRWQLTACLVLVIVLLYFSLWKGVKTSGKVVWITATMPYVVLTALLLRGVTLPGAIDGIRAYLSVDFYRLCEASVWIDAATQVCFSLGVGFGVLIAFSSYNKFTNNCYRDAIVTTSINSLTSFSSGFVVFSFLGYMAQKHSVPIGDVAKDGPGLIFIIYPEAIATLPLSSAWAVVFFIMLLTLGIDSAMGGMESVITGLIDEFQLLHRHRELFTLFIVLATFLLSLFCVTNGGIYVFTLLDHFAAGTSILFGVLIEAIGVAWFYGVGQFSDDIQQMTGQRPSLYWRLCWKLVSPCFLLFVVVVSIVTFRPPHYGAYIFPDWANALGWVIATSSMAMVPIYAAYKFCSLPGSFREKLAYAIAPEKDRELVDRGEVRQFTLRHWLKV

In series [1], `Cl.N#Cc1ccc2[nH]cc(CCCCN3CCN(c4ccc5oc(C(N)=O)cc5c4)CC3)c2c1` [Vilazodone, 1-[4-(5-cyanoindol-3-yl)butyl]-4-(2-carbamoyl-benzofuran-5-yl)-piperazine hydrochloride] registered a concentration at 7 day of 36 ng/mL, a concentration at 8 day of 45.1 ng/mL and a concentration at 9 day of 45.3 ng/mL. Further, the “binding to dopamine reuptake site” value in series [2] is “not”.
